Results: ChEMBL document CHEMBL1150980, “Potent inhibitors of neutral endopeptidase. 2-Biphenyl- methylglutaric acid amide derivatives” (Bioorg Med Chem Lett, 1996)
pIC50: −log10 of the molar value.

biological target: T1, Neprilysin (Rattus norvegicus, UniProt P07861); assay: In vitro inhibition of neutral endopeptidase from rat kidney.
T1 sequence (P07861 whole entry): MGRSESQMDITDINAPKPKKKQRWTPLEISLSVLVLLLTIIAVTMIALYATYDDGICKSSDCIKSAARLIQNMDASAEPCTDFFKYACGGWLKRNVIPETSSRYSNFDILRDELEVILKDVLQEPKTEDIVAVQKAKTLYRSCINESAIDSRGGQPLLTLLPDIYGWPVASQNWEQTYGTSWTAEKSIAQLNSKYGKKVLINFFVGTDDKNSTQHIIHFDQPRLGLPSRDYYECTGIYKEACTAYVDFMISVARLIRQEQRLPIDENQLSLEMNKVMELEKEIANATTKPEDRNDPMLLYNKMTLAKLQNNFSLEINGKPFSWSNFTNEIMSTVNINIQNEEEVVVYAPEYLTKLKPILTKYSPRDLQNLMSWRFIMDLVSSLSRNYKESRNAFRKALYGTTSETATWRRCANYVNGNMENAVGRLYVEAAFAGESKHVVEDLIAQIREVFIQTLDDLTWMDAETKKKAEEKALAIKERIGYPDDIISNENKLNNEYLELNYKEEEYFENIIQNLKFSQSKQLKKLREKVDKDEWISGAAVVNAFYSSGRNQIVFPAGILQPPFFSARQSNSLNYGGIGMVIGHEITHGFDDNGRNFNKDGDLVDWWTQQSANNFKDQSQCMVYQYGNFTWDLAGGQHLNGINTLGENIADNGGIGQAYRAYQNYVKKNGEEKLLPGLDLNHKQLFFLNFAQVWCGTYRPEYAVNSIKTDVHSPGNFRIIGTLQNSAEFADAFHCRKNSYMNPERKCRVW

Compound | pIC50
CCCC[C@H](C[C@H](Cc1ccc(-n2cccn2)cc1)C(=O)NCC(=O)O)C(=O)O | 6.44
O=C(O)CC[C@@H](Cc1ccc(-c2ccccc2)cc1)C(=O)NCC(=O)O | 8.64
CCC/C=C(/C[C@@H](Cc1ccc(-n2cccn2)cc1)C(=O)NCC(=O)O)C(=O)O | < 6.00
O=C(O)CNC(=O)[C@H](Cc1ccc(-c2ccccc2)cc1)C[C@@H](COc1ccccc1)C(=O)O | 8.49
O=C(O)CNC(=O)[C@@H](C[C@H](COc1ccccc1)C(=O)O)Oc1ccc(-c2ccccc2)cc1 | < 6.00
O=C(O)CNC(=O)[C@H](Cc1ccc(-c2ccccc2)cc1)C[C@H](COc1ccccc1)C(=O)O | 8.23
CC(CC(Cc1ncc(-c2ccccc2)cn1)C(=O)NCC(=O)O)C(=O)O (stereo not given) | < 6.00
CC(NC(=O)[C@H](Cc1ccc(-c2ccccc2)cc1)CC(COc1ccccc1)C(=O)O)C(=O)O (mixture of isomers) | 7.70
CSCCC(NC(=O)[C@H](Cc1ccc(-c2ccccc2)cc1)CC(COc1ccccc1)C(=O)O)C(=O)O (mixture of isomers) | 7.00
O=C(O)CNC(=O)[C@H](Cc1ccc(-c2ccccc2)cc1)CC(COc1ccccc1)C(=O)O (single isomer, unassigned; isomer A) | 8.49
COCCOCC(CC(Cc1ccccc1)C(=O)NCC(=O)O)C(=O)O (single isomer, unassigned; isomer A) | < 6.00
O=C(O)CNC(=O)C(Cc1ccccc1)CC(COc1ccccc1)C(=O)O (single isomer, unassigned; isomer A) | < 6.00
COCCOCC(CC(Cc1ccccc1)C(=O)NCC(=O)O)C(=O)O (single isomer, unassigned; isomer B) | 6.02
O=C(O)CNC(=O)C(Cc1ccccc1)CC(COc1ccccc1)C(=O)O (single isomer, unassigned; isomer B) | 6.39
O=C(O)C(COc1ccccc1)C[C@@H](Cc1ccc(-c2ccccc2)cc1)C(=O)N1CCCC1C(=O)O (single isomer, unassigned; isomer B) | < 6.00
CC(NC(=O)[C@H](Cc1ccc(-c2ccccc2)cc1)CC(COc1ccccc1)C(=O)O)C(=O)O (stereo in doubt) | 8.55
O=C(O)C(COc1ccccc1)C[C@@H](Cc1ccc(-c2ccccc2)cc1)C(=O)N1CCCC1C(=O)O (stereo in doubt) | < 6.00
C[C@@H](NC(=O)[C@H](Cc1ccc(-c2ccccc2)cc1)CC(COc1ccccc1)C(=O)O)C(=O)O (stereo in doubt; form 1) | 7.89
C[C@@H](NC(=O)[C@H](Cc1ccc(-c2ccccc2)cc1)CC(COc1ccccc1)C(=O)O)C(=O)O (stereo in doubt; form 2) | 8.06

biological target: T1, Neprilysin; assay: In vitro inhibitory activity against neutral endopeptidase (NEP) from rat kidney

Compound | pIC50
O=C(O)CNC(=O)[C@H](Cc1ccc(-c2ccccc2)cc1)CC(COc1ccccc1)C(=O)O (stereo not given in full) | 8.23
